Measurements from patent US20150031733A1, “TETRAZOLINONE COMPOUNDS AND ITS USE” (SUMITOMO CHEMICAL COMPANY, LIMITED, priority 2012, published 2015).
Where two headings read alike, the source gives them in different places.

Columns and labels:
Type in all cases: in vivo
[1] = test system: housefly (Musca domestica); test: Housefly mortality test on treated filter paper; details: 500 ppm solution 0.7 mL on filter paper, female adult, after 24 hours
Method: Each formulation containing the present Compounds […] prepared according to the above-mentioned Formulation examples was diluted with water so that the active ingredient concentration was set to 500 ppm and the testing drug solutions were prepared. […] Ten (10) individuals of female adult housefly (Musca domestica) was released into the polyethylene cup and the cup was covered with the lid. After 24 hours, the number of the dead insects was counted. The mortality of insects was calculated by the following equation. Mortality of insects(%)=(Number of dead insects/Number of tested insects)×100

[2] = test system: cabbage moth (Plutella xylostella); test: Cabbage moth mortality test on sprayed cabbage; details: 500 ppm, 20 mL/cup sprayed on cabbage, three instar larval stages, after 5 days
Method: The testing drug solutions to be used in this Test example were prepared by diluting the formulations prepared according to the above-mentioned Formulation examples with an ion-exchange water so that the active ingredient concentration was set to 500 ppm. Cabbage (green ball) was planted in a polyethylene cup and was grown until the third true leaf or the fourth true leaf was developed. To the cabbage (Brassicae oleracea) was sprayed the above-mentioned testing solutions in a ratio of 20 mL/cup. After the drug solutions were dried, to a polyethylene cup (diameter 5.5 cm) covered with a filter paper on the bottom, the cabbage cut out from the root was installed and five heads of cabbage moth (Plutella xylostella) at the three instar larval stages were released into the cup and the cup was covered with the lid. The cup was held at 25° C. and after 5 days, the number of the surviving insects was counted and the mortality of insects was calculated by the following equation. Mortality of insects(%)=(Number of dead insects/Number of tested insects)×100

[3] = test system: common house mosquito (Culex pipiens pallens); test: Common house mosquito larva mortality test in treated water; details: active ingredient concentration 3.5 ppm in water, last instar larva, read-out: mortality of insects
Method: Each formulation containing the present Compounds […] prepared according to the above-mentioned Formulation examples was diluted with water so that the active ingredient concentration was set to 500 ppm and the testing drug solutions were prepared. The above-mentioned drug solutions 0.7 mL were added to an ion-exchange water 100 mL (an active ingredient concentration: 3.5 ppm). Twenty (20) last instar larva of common house mosquito (Culex pipiens pallens) were released into the solutions and after 1 day, the number of the dead insects was counted. The mortality of insects was calculated by the following equation. Mortality of insects(%)=(Number of dead insects/Number of tested insects)×100 The testing drug solutions to be used in this Test example were prepared by diluting the formulations prepared according to the above-mentioned Formulation examples with an ion-exchange water so that the active ingredient concentration was set to 500 ppm. The above-mentioned drug solutions 0.7 mL were added to an ion-exchange water 100 mL so that the active ingredient concentration was set to 3.5 ppm. Twenty (20) last instar larva of common house mosquito (Culex pipiens pallens) were released into the solutions and after […], the number of the dead insects was counted. The mortality of insects was calculated by the following equation. Mortality of insects(%)=(Number of dead insects/Number of tested insects)×100

With `Cc1cccc(-n2nnn(C)c2=O)c1COc1nc(-c2ccc(I)cc2)cs1` [Compound T033, 2-{[1-(4,5-dihydro-4-methyl-5-oxo-1H-tetrazole-1-yl)-3-methylphenyl-2-yl]methyloxy}-4-(4-iodophenyl)thiazole] the mortality of insects [1] was 100%.

For `Cc1cccc(-n2nnn(C)c2=O)c1COc1nc(-c2ccc(Br)cc2F)cs1` [Compound T034, 2-{[1-(4,5-dihydro-4-methyl-5-oxo-1H-tetrazole-1-yl)-3-methylphenyl-2-yl]methyloxy}-4-(4-bromo-2-fluorophenyl)thiazole], the mortality of insects [2] was 80%.

Compound `Cc1cccc(-n2nnn(C)c2=O)c1COc1nc(-c2c(F)c(F)c(F)c(F)c2F)cs1` [Compound T036, 2-{[1-(4,5-dihydro-4-methyl-5-oxo-1H-tetrazole-1-yl)-3-methylphenyl-2-yl]methyloxy}-4-(2,3,4,5,6-pentafluorophenyl)thiazole] has a mortality of insects [2] of 80%.

Work on `Cc1ccc(-c2csc(OCc3c(C)cccc3-n3nnn(C)c3=O)n2)cc1` [Compound T039, 2-{[1-(4,5-dihydro-4-methyl-5-oxo-1H-tetrazole-1-yl)-3-methylphenyl-2-yl]methyloxy}-4-(4-methylphenyl)thiazole] yielded a mortality of insects [1] of 100%.

In the case of `CCCCc1ccc(-c2csc(OCc3c(C)cccc3-n3nnn(C)c3=O)n2)cc1` [Compound T041, 2-{[1-(4,5-dihydro-4-methyl-5-oxo-1H-tetrazole-1-yl)-3-methylphenyl-2-yl]methyloxy}-4-(4-butylphenyl)thiazole], the mortality of insects [2] was 80%.

`Cc1cccc(-n2nnn(C)c2=O)c1COc1nc(-c2ccc(C(C)(C)C)cc2)cs1` [Compound T042, 2-{[1-(4,5-dihydro-4-methyl-5-oxo-1H-tetrazole-1-yl)-3-methylphenyl-2-yl]methyloxy}-4-[4-(1,1-dimethylethyl)phenyl]thiazole] showed a pest or weed control at 3.5 ppm ([3]; 192 h, after 8 day) of 100% and a mortality of insects [2] of 80%.

For `Cc1ccccc1-c1csc(OCc2c(Br)cccc2-n2nnn(C)c2=O)n1` [Compound T091, 2-{[1-(4,5-dihydro-4-methyl-5-oxo-1H-tetrazole-1-yl)-3-bromophenyl-2-yl]methyloxy}-4-(2-methylphenyl)thiazole], the pest or weed control at 3.5 ppm ([3]; 192 h, after 8 day) was 100% and the mortality of insects [2] was 80%.

Compound `CCc1cccc(-n2nnn(C)c2=O)c1COc1nc(-c2ccccc2C)cs1` [Compound T097, 2-{[1-(4,5-dihydro-4-methyl-5-oxo-1H-tetrazole-1-yl)-3-ethylphenyl-2-yl]methyloxy}-4-(2-methylphenyl)thiazole] has a pest or weed control at 3.5 ppm ([3]; 192 h, after 8 day) of 100%.

With `CCc1ccccc1-c1csc(OCc2c(C)cccc2-n2nnn(C)c2=O)n1` [Compound T125, 2-{[1-(4,5-dihydro-4-methyl-5-oxo-1H-tetrazole-1-yl)-3-methylphenyl-2-yl]methyloxy}-4-(2-ethylphenyl)thiazole] the pest or weed control at 3.5 ppm ([3]; 24 h, after 1 day) was 100% and the mortality of insects [2] was 80%.

For `COc1cc(Cl)ccc1-c1csc(OCc2c(C)cccc2-n2nnn(C)c2=O)n1` [Compound T143, 2-{[1-(4,5-dihydro-4-methyl-5-oxo-1H-tetrazole-1-yl)-3-methylphenyl-2-yl]methyloxy}-4-(4-chloro-2-methoxyphenyl)thiazole], the pest or weed control at 3.5 ppm ([3]; 24 h, after 1 day) was 100%.

Compound `CCCCCCCc1ccccc1-c1csc(OCc2c(C)cccc2-n2nnn(C)c2=O)n1` [Compound T144, 2-{[1-(4,5-dihydro-4-methyl-5-oxo-1H-tetrazole-1-yl)-3-methylphenyl-2-yl]methyloxy}-4-(2-heptylphenyl)thiazole] has a pest or weed control at 3.5 ppm ([3]; 192 h, after 8 day) of 100%.

Work on `Cc1cccc(-n2nnn(C)c2=O)c1COc1nc(-c2cccc(Br)c2)cs1` [Compound T145, 2-{[1-(4,5-dihydro-4-methyl-5-oxo-1H-tetrazole-1-yl)-3-methylphenyl-2-yl]methyloxy}-4-(3-bromophenyl)thiazole] yielded a mortality of insects [2] of 80%.

Compound `CCCCCCCc1cccc(-c2csc(OCc3c(C)cccc3-n3nnn(C)c3=O)n2)c1` [Compound T146, 2-{[1-(4,5-dihydro-4-methyl-5-oxo-1H-tetrazole-1-yl)-3-methylphenyl-2-yl]methyloxy}-4-(3-heptylphenyl)thiazole] has a pest or weed control at 3.5 ppm ([3]; 192 h, after 8 day) of 100%.

With `Cn1nnn(-c2ccc(F)cc2COc2nc(-c3ccc(Br)cc3)cs2)c1=O` [Compound T147, 2-{[1-(4,5-dihydro-4-methyl-5-oxo-1H-tetrazole-1-yl)-4-fluorophenyl-2-yl]methyloxy}-4-(4-bromophenyl)thiazole] the pest or weed control at 3.5 ppm ([3]; 192 h, after 8 day) was 100%.

`COc1ccc(C)cc1-c1csc(OCc2c(C)cccc2-n2nnn(C)c2=O)n1` [Compound T148, 2-{[1-(4,5-dihydro-4-methyl-5-oxo-1H-tetrazole-1-yl)-3-methylphenyl-2-yl]methyloxy}-4-(5-methyl-2-methoxyphenyl)thiazole] gave a pest or weed control at 3.5 ppm ([3]; 192 h, after 8 day) of 100%.
